The text below walks through data of the pKa sets of Baltruschat and Czodrowski (2020).

In general, pKa refers to the pH at which an ionisable group is half protonated.

SMILES strings stand for the structures.

The conditions of one series: acidic group.
In the case of `Cc1ccc(S(=O)(=O)NCCC(N)=[NH2+])cc1`, the pKa was 9.49.
In turn, `O=C1CC(S)C(=O)N1` (stereo not drawn) showed a pKa of 6.65.
With `CCC(=O)NBr`, the pKa was found to be 8.2.
Turning to `N#Cc1ccc2c(c1)C([P+](c1ccccc1)(c1ccccc1)c1ccccc1)c1ccccc1-2` (stereo not drawn), the pKa turned out to be 5.81.
Compound `CCCCCCCP(=O)(CCCCCCC)NC1CCCCC1` yielded a pKa of 12.5.
`O=c1[nH]ccc2nnnn12` returned a pKa of 6.95.
The same measure, in the same setting: the figure for `O=C1CC(=O)NC(=S)N1` is 4.15.
`c1ccc(-c2c[nH]c(-c3ccccc3)n2)cc1` gave a pKa of 12.6.
The same measure, in the same setting: for `OC(O)c1cccnc1` the value was 13.1.
For `Cn1cc(O)[nH+]c1N`, the pKa was 4.9.
On to `CC(C#N)CC(=O)O` (stereo not drawn), for which the pKa was 3.95.
As for `Cc1csc(-c2ccc(NS(=O)(=O)c3ccc(N)cc3)cc2)n1`, the pKa is 8.5.
The same measure, in the same setting: the figure for `CC(C)C[C@H]([NH3+])C(=O)O` is 2.54; for `C[S+](C)c1ccc(O)cc1` it is 7.31; for `CN(C)c1ccc(NC(=O)/C=N/O)cc1` it is 9.26.
Turning to `O=[N+]([O-])/C=C/c1ccc(O)cc1`, the pKa is 7.98.
In turn, `O=C(O)Cc1ccco1` showed a pKa of 3.72.
Still for that read-out and setting: the figure for `O=C(O)C1C2CCC1CC2` (stereo not drawn) is 4.85; for `CC(C)CN[N+](=O)[O-]` it is 6.38; for `O=C(O)COc1ccccc1` it is 3.15.
In the case of `CCCc1c(O)n2c3cc(C)ccc3nc(N(C)C)n2c1=O`, the pKa came out at 6.55.
On the same count and under the same terms, for `O=C(O)/C=C\c1c[nH]c[nH+]1` the value was 3; for `Cc1nc(NS(=O)(=O)c2ccc(N)cc2)no1`, 4.4.
Compound `Cn1ncnc1/N=N/O` had a pKa of 4.45.
In turn, `C[NH+](C)Cc1ccc(O)cc1` had a pKa of 8.83.
The compound `CC(C)C(O)C(C(=O)O)c1ccc(-c2ccccc2)cc1` (stereo not drawn) gave a pKa of 4.13.
Still for that read-out and setting: for `Cc1nsc(S)n1` the value was 5.18; for `CC(=O)CC(=S)Nc1cccc(C)c1`, 7.56; for `Oc1[nH+]ncc2ccccc12`, -2.
`Cc1ccc(S(N)(=O)=O)cc1C` yielded a pKa of 9.62.
The compound `COc1ccccc1-c1nnn[nH]1` registered a pKa of 4.8.
The compound `COc1ccc(C(=S)Nc2ccccc2)cc1` yielded a pKa of 11.3.
In the case of `OCc1ccc(O)c(CO)c1`, the pKa was 9.77.
In turn, `[NH3+]CC(=O)NCC(=O)NCC(=O)N1CCC[C@H]1C(=O)O` yielded a pKa of 2.91.
Same read-out and setting: the figure for `Oc1cc[n+](OCc2ccccc2)cc1` is 2.58; for `CC(=O)C(Cc1ccc(Cl)cc1)C(C)=O` it is 10.2.
Consider `O=C1/C(=C2\C=CC=CN2)C(=O)c2cc([N+](=O)[O-])ccc21`, for which the pKa was determined as 9.26.
Consider `C[N+](C)(C)c1cccc(O)c1`, for which the pKa was 8.07.
`O=Cc1ccc(O)cc1Cl` returned a pKa of 6.6.
As to `O=C(O)CCCCC1CCSS1` (stereo not drawn), the pKa turned out to be 4.82.
For `Cc1ccc([N+](=O)[O-])cc1C(=O)O`, the pKa is 3.17.
For `CC(O)c1cccc(O)c1CO` (stereo not drawn), the pKa came to 9.9.
Same read-out and setting: the figure for `Oc1c(Cl)cc(Cl)c(Cl)c1C[NH+]1CCCCC1` is 5.06; for `CCCCCCC(=O)O` it is 4.86; for `O=C1/C(=N\O)C=C(S(=O)(=O)[O-])c2cn[nH]c21` it is 6.35.
On the same count and under the same terms, the figure for `Oc1cc(-c2ccccc2)no1` is 4.01; for `CC(=O)c1ccc([N+](=O)[O-])cc1C(=O)O` it is 3.27.
`Cc1cc(O)n(-c2nc(O)c(C)c(C)[nH+]2)n1`: the pKa came to 5.5.
Compound `Cc1cc(N)c(O)cc1C` came in with a pKa of 10.4.
`NS(=O)(=O)c1cc2c(cc1Cl)N=CNS2(=O)=O` gave a pKa of 6.7.
`Oc1ccc(-c2nnn[nH]2)cc1` gave a pKa of 4.28.
Still for that read-out and setting: the figure for `COc1ccc(S(=O)(=O)Nc2ccccc2)cc1` is 8.66; for `C[NH+]1C[C@@H](C(=O)O)C=C2c3cccc4[nH]cc(c34)C[C@@H]21` it is 3.28.
Turning to `CCC/C=C(\C)C(=O)O`, the pKa worked out at 5.13.
Compound `COc1ccc(NC=S)cc1` displayed a pKa of 11.7.
Turning to `CCOC(=O)CC(=O)c1ccc(C)cc1`, the pKa turned out to be 10.7.
Regarding `CCCCCCCCCCc1c(-c2ccccc2)nn(-c2ccccc2)c1O`, the pKa amounted to 6.7.
In turn, `Cc1ccc(C(=S)Nc2ccc(Br)cc2)cc1` gave a pKa of 10.8.
For `CCCC(=O)NO`, the pKa amounted to 9.48.
The same measure, in the same setting: the figure for `CO[C@H]1C[C@H]1C(=O)O` is 4.76; for `CC(C)(C(N)=O)S(N)(=O)=O` it is 9.92; for `CCOCC(=O)O` it is 3.61.
`C=CCC1(C2=CCCCC2)C(=O)NC(=S)NC1=O`: the pKa was 7.09.
On to `Cc1cc(/N=N/c2ccc(S(N)(=O)=O)cc2)cc(C(=O)[O-])c1O`, for which the pKa came to 10.2.
On to `Cc1cc(Cc2cc(O)ccc2C)c(O)c([N+](=O)[O-])c1`, for which the pKa came to 7.93.

Still in this series, the particulars now being: basic group.
`Cc1ncc(CO)c(CN)c1[O-]` had a pKa of 10.3.
Take `O=C1C=CN2C[C@@H]3C[C@@H](CN4CCCC[C@H]34)[C@@H]2C1`: the pKa worked out at 9.25.
For the compound `CCN(CC)Cc1cccc(C)c1O`, the pKa is 8.19.
For `CNCC(O)c1ccccc1` (stereo not drawn), the pKa worked out at 9.31.
For `COCC/N=C(\c1ccccc1)C(C)(C)O`, the pKa was determined as 5.75.
The same measure, in the same setting: for `O=[N+]([O-])c1cnc([O-])nc1[O-]` the value was 11.5; for `CCCCCCCP(=O)(CCCCCCC)NC1CCCCC1`, 4.87.
Take `CN(C)CCC(c1ccccc1)c1ccccn1` (stereo not drawn): the pKa came to 9.29.
On to `c1ccc(-c2ccncc2)cc1`, for which the pKa was 5.3.
As to `CCCc1cccnn1`, the pKa amounted to 3.59.
On the same count and under the same terms, for `CCNc1cc[nH+]c([O-])n1` the value was 4.58; for `CC/N=C1\C=C(NCC)CC(C)(C)C1`, 12.1; for `C[C@H](N)[C@H](C)[NH3+]`, 6.79.
Consider `c1c[nH]c(Cc2[nH]cc[nH+]2)n1`, for which the pKa was 4.9.
For the compound `CN1C=C(C#N)C=CC1`, the pKa came to 2.7.
`NCC[n+]1cc(Br)c2ccccc2c1` gave a pKa of 6.71.
`CN1CCC=C(C#N)C1` showed a pKa of 6.35.
With `CN(C)c1ccc(NC(=O)/C=N/O)cc1`, the pKa turned out to be 4.94.
`Cn1ccc(=N)c2ccccc21`: the pKa came out at 12.4.
As for `CCN(C)N(C)C`, the pKa was determined as 6.38.
With `O=Cc1ccnc2ccccc12`, the pKa worked out at 4.25.
Take `Brc1cccnc1`: the pKa was 2.94.
In turn, `CCP(=S)(CC)C(=S)NN` yielded a pKa of 5.6.
In turn, `C[NH+](C)CCCCNc1ccnc2cccc([N+](=O)[O-])c12` gave a pKa of 6.71.
`C=CCC(C)(CN(CC)CC)OC(C)=O` (stereo not drawn) yielded a pKa of 9.85.
Still for that read-out and setting: for `Cc1ccc(CNCC[NH3+])cc1` the value was 6.51; for `COC1=CC=C2[C@@H]3Cc4ccc(OC)c5c4[C@]2(CCN3C)[C@@H]1O5`, 8.15.
In turn, `CN1CCOCC1` returned a pKa of 7.66.
Consider `OCCN1CC[NH2+]CC1`, for which the pKa stood at 5.47.
In turn, `[O-]c1nc([O-])c2[nH]nnc2[nH+]1` registered a pKa of 4.2.
`COc1cccc(CN)c1OC` showed a pKa of 9.41.
Regarding `O=C(CN1CCOCC1)c1ccccc1`, the pKa amounted to 5.97.
`CCc1nc2ccccc2[nH]1` gave a pKa of 6.2.
`N=C1C=C(N)C(=O)c2ccccc21` had a pKa of 8.87.
The same measure, in the same setting: the figure for `CCNCCCC(=O)[O-]` is 11; for `CN1C2CCC(CC2)N1C` it is 7.14.
On the same count and under the same terms, the figure for `Cc1cc(C)n(-c2ccccn2)n1` is 1.89.
On the same count and under the same terms, for `[O-]c1ccnnc1` the value was 8.68.
The compound `Cc1cc(-c2ccccc2)nn2c(C[NH+](C)C)cnc12` showed a pKa of 3.18.
In turn, `Cn1ncc2c(NC(C)(C)CC(C)(C)C)ncnc21` displayed a pKa of 3.96.
`CC(C[NH3+])/C(N)=N/O` (stereo not drawn) showed a pKa of 3.65.
Regarding `CCCCNCC(=O)c1ccc(O)cc1`, the pKa was 8.55.
On the same count and under the same terms, the figure for `Cc1cc(C)n(-c2cc(C)n(C)[nH+]2)n1` is -2.9; for `c1ccc(-c2ccc(NCC[NH+]3CCOCC3)nn2)cc1` it is 3.74; for `CCc1cnnc(C)c1` it is 4.17.
For `Cc1n[nH]c(C)c1Cl`, the pKa was determined as 2.23.
Compound `CC(O)CNCC[NH3+]` (stereo not drawn) gave a pKa of 6.94.
Compound `N=C(c1ccccc1)c1ccccc1` registered a pKa of 6.82.
As for `c1cc([C@@H]2CCCN2)nc([C@@H]2CCCN2)c1`, the pKa amounted to 10.1.
In the case of `Cc1cc(N)c(O)cc1C`, the pKa was 5.28.
As for `CSc1ccc(N)cc1[N+](=O)[O-]`, the pKa turned out to be 2.47.
In turn, `c1ccc(Nc2ncnc3[nH]ncc23)cc1` yielded a pKa of 3.92.
With `C=C(C)[C@H]1CN[C@H](C(=O)[O-])[C@H]1CC(N)=O`, the pKa worked out at 9.47.
Compound `Cc1ccc(Nc2ccccc2)cc1` displayed a pKa of 1.16.
For the compound `CC(C)CN(C)c1ccccc1`, the pKa came out at 5.2.
`CCCCCCCCN1CCCCC1` had a pKa of 8.28.
In turn, `[O-]c1ncnc2ccccc12` gave a pKa of 9.81.
In turn, `Nc1ccc2[nH]cnc2c1` yielded a pKa of 6.11.
Same read-out and setting: for `C[NH+](C)CCCNc1ccnc2cc([N+](=O)[O-])ccc12` the value was 6.77; for `Cc1[nH]c2ccc(N)cc2[nH+]1`, 3.12.
For `C/C=C(/C)C(=O)O[C@H]1CC[C@@]2(C)[C@@H]3CC[C@H]4[C@]5(O)C[C@H](O)[C@@]6(O)[C@@H](CN7C[C@@H](C)CC[C@H]7[C@@]6(C)O)[C@]5(O)C[C@@]42O[C@]13O`, the pKa turned out to be 8.85.
With `OC[C@@H]1O[C@H](n2cnc3c2ncn2ccnc32)[C@@H](O)[C@H]1O`, the pKa stood at 4.1.
For the compound `[O-]c1[nH+]ccc2c1cnc1ccccc12`, the pKa came to 4.1.
Regarding `O=C([O-])C(NCC[NH2+]C(C(=O)[O-])c1ccccc1O)c1ccccc1O` (stereo not drawn), the pKa worked out at 6.32.
For the compound `COc1ccc(-c2nc3cnccc3[nH]2)c(OC)c1`, the pKa was determined as 6.49.
On to `Cc1cccc(C)c1N(C)C`, for which the pKa turned out to be 5.85.
Compound `CC(C)(C)c1ccc(N)cc1` returned a pKa of 4.95.
Compound `CC(=O)n1cccn1` had a pKa of 3.16.
`CCCCCCCCNCc1ccc(C)cc1` displayed a pKa of 9.47.
Turning to `Cc1ccncc1`, the pKa was 6.15.
Still for that read-out and setting: the figure for `FC(F)(F)c1ccc2cccnc2c1` is 3.16; for `CC(C)N1C[Si](C)(C)O[Si](C)(C)C1` it is 10.
The compound `CCCCN(CCCC)c1ccccc1` yielded a pKa of 6.41.
